Measurements as given in publication PMC9161444, “In-Membrane Nanostructuring of Cationic Amphiphiles Affects Their Antimicrobial Efficacy and Cytotoxicity: A Comparison Study between a De Novo Antimicrobial Lipopeptide and Traditional Biocides” (Langmuir, 2022).

Assays:
[1] = system: C. albicans SC5314 (ATCC MYA-2876); type: cell-based, Candida albicans; details: for MIC/CAC, converted data, C. albicans: MIC divided by the amphiphile's CAC; for MIC, C. albicans: microdilution in RPMI 1640, 30 °C, 48 h, 10^5 CFU/mL, by eye and OD600, ± SD, at least three replicates
Procedure: E. coli (ATCC 25922), S. aureus (ATCC 6538), and C. albicans SC5314 (ATCC MYA-2876) were purchased from the American Type Culture Collection (ATCC). The two bacterial strains, E. coli and S. aureus, were cultured in Mueller Hinton broth at 37 °C; while the yeast strain, C. albicans, was grown in RPMI 1640 medium at 30 °C. The microdilution method was employed to determine MICs of the amphiphiles against the microorganism strains listed above.[21] Solutions of lipopeptides and biocides were half-diluted serially in 96-well plates using PBS buffer containing 137 mM NaCl, 2.7 mM KCl, 8.1 mM Na2HPO4, and 1.9 mM KH2PO4 for E. coli and S. aureus and using RPMI 1640 for C. albicans. Overnight incubations of the strains, in each respective growth medium, were then inoculated into each well, giving final concentrations of 10^6 CFU/mL for E. coli and S. aureus and 10^5 CFU/mL for C. albicans. Culture media without microorganisms and amphiphiles were employed as positive controls, while fresh microorganism cultures without amphiphiles were used as negative controls. Each plate has both positive controls and negative controls. The plates were then incubated at an appropriate temperature (stated above) for 24 h for the bacterial strains and 48 h for the yeast strain. MICs of each sample were first determined by eye. A more quantitative analysis was carried out by measuring optical densities at 600 nm (OD600) of each well using a Sunrise absorbance microplate reader (Tecan Group Ltd.). Inhibitory ratios (IRs) of each sample at a given concentration against a specific strain, denoted as IRi, were calculated by IRi = (OD600,negative control – OD600,i)/(OD600,negative control – OD600,positive control) × 100%. All experiments were repeated at least three times with each group containing three replicates. To better analyze concentration–IR relationships, sigmoidal function fittings were employed to generate the best fitted dose response curve for each situation.

[2] = Surface tension measurements (CAC, area per molecule); type: physicochemical; details: Krüss K11, 25 °C, PBS or saline (171.5 mM NaCl, pH 7.2) of equivalent ionic strength, saline for C14KKGGII, points repeated at least three times
Procedure: Surface tensions of salt solutions of the amphiphiles were measured using a Krüss Force Tensiometer K11 at 25 °C. Saline (171.5 mM NaCl, final pH 7.2) instead of phosphate-buffered saline (PBS) was used to dissolve the samples of peptide C14KKGGII in order to avoid gelation above 0.1 mM. The ionic strength of the saline solution was the same as that of the PBS (consisting of 137 mM NaCl, 2.7 mM KCl, 8.1 mM Na2HPO4, and 1.9 mM KH2PO4, pH 7.2) solution employed in antimicrobial assays. Concentration effects on the surface tension were investigated for each amphiphile, and its CAC in the buffer environment was determined. All the data points were repeated at least three times. Quadratic functions were used to fit the surface tension at low concentrations below their CACs, while linear functions were used to fit the high concentration regions above the CACs for all three amphiphiles: [drawing 1] 1 [drawing 2] 2 where γ represents the surface tension in milli-newtons per meter, C is the amphiphile concentration in millimolar, and a1, b1, b2, c1, and c2 are the best fitted parameters. Intersections of the two lines give the estimated CACs of the amphiphiles. The Gibbs equation for solutions with a constant and excess salt is [drawing 3] […] The areas per molecule for the three amphiphiles at their CACs were calculated using [drawing 6] […]

| Structure (SMILES) | MIC/CAC, converted data, C. albicans [1] | MIC, C. albicans [1] [µM] | CAC (critical aggregation concentration) [2] [µM] |
| --- | --- | --- | --- |
| CCCCCCCCCCCC[N+](C)(C)C.[Br-] [C12TAB, dodecyltrimethylammonium bromide] | 0.10 ± 0.03 | 100 ± 30 | ~1000 ± 100 |
| CCCCCCCCCCCCCC[N+](C)(C)C.[Br-] [C14TAB, tetradecyltrimethylammonium bromide] | 0.12 ± 0.02 | 12 ± 2 | – |
